{"source": "paper PMC9760738", "about": "“Pharmacokinetics, absorption, distribution, metabolism and excretion of the MEK inhibitor zapnometinib in rats” (Frontiers in Pharmacology, 2022)", "assay": "Metabolite profiling of pooled feces extracts by radio-HPLC (Group 2)", "assay_type": "in vivo, rat", "conditions": "for Proportion of feces sample radioactivity: 24-48 h", "description": "Metabolite profiling was performed by HPLC analysis according to the company’s SOP of plasma (Group 3), urine (Group 2) and feces (Group 2) samples. Briefly, for metabolite profiling and identification, radioactivity (cpm) was measured in HPLC eluent fractions that had previously been collected at 12 s intervals for the duration of the run (65 min) into 96-well Deep Well LumaPlates and dried in a centrifugal evaporator. A Microbeta2 scintillation counter was used to count each plate, with wells simultaneously counted for 2 min, after an initial 5 min delay. A subsample of plasma was analyzed (ca 2 ml) taken from individual animals to provide representative samples, for each sex, at 2, 8 and 168 h post dose (n = 6). Equal proportions of the total urine weight voided from Group 2 animals was pooled to provide representative samples for each sex at 0–6 h, 6–24 h and 24–48 h post dose (n = 6). Equal proportions of the total feces homogenate generated from the samples voided by the three rats (Group 2) were pooled to provide representative samples for each sex at 0–24 and 24–48 h post dose ([…]). Sample preparation was carried out due to the company’s SOPs (see Supplementary Methods). The extractability was ≥95.0% (95.0–100%) TRR (Total Radioactive Residue) for plasma and ≥88.3% (88.3%–91.3%) TRR for feces. As reference, a standard solution of zapnometinib (0.1 mg/ml in acetonitrile) was used. To assess HPLC method suitability, a column recovery was assessed on each representative sample (one per matrix). The recovery of radioactivity from the HPLC column was determined by collecting the column eluent, following an injection of a representative sample (one per matrix), and determining the radioactive content by submitting aliquots for LSC analysis. The results of these analyses were between 93.8%–105.1% column recoveries.\nNext, radioactive metabolic components of zapnometinib in urine, plasma and feces extracts were isolated and profiled. The components were quantified by fraction collection/scintillation analysis, as appropriate to the radioactivity concentrations. Mass spectroscopy was used to propose identities of the major circulatory and excreted metabolites, and to correlate the metabolites detected in the different matrices. Components identified by LC-MS/MS were related to the quantified HPLC analysis by comparison of related radiochromatograms and comparison of elution order. Representative HPLC radiochromatograms of pooled feces extracts collected during 0–24 and 24–48 h post dose from male and female rats (which reveal the main metabolites) were qualitatively similar with some minor sex differences (Figure 3). […]\ntimes with the following solvents following the same procedure: Extract 2 – Acetonitrile/methanol 4:1 (v/v); Extract 3 – Acetonitrile/Water 1:1 (v/v). Duplicate weighed aliquots of each supernatant (ca 0.1 mL) were mixed directly with Ultima Gold scintillation cocktail for measurement of radioactivity concentrations. The extracted residue was allowed to air dry and the total weight was recorded. Duplicate weighed portions (ca 0.05g) were taken for radioassay after oxidation. The extracts were combined and concentrated under a constant stream of nitrogen gas to near dryness and reconstituted in acetonitrile/0.1% aqueous formic acid, 1:1 (v/v) by vortex mixing, sonication and centrifugation at 10000 × g for 5 min at 4°C.\nThe concentrates were weighed, and duplicate weighed aliquots (0.025 – 0.05 mL) taken for measurement of radioactivity to calculate recovery following concentration. An aliquot of each concentrated extract was injected into the HPLC. […]\n(100 mL) in purified water (600 mL) and methanol (300 mL). After measurement of total sample weight (as appropriate), replicate portions of diluted dose solutions (ca 0.1 mL), plasma (ca 0.05 – 0.25 mL), urine (ca 0.05 – 0.25 mL), expired air trap solution (ca 1 mL) and cage wash (ca 1 mL) were mixed directly with Ultima Gold scintillation cocktail (5 mL; 15 mL for […]", "data": [{"compound": "O=C(O)c1ccc(F)c(F)c1Nc1ccc(I)cc1Cl", "note": "[zapnometinib, 2-(2-Chloro-4-iodophenylamino)-3,4-difluorobenzoic acid]", "values": [{"measurement": "Amount in pooled feces extracts", "setting": "0-24 hours, female rats", "value": 19.87, "unit": "% Dose"}, {"measurement": "Amount in pooled feces extracts", "setting": "0-24 hours, male rats", "value": 19.28, "unit": "% Dose"}, {"measurement": "Proportion of feces sample radioactivity", "setting": "female rats", "value": 28.5, "unit": "% sample radioactivity"}, {"measurement": "Proportion of feces sample radioactivity", "setting": "male rats", "value": 21.5, "unit": "% sample radioactivity"}, {"measurement": "Amount in pooled feces extracts", "setting": "24-48 hours, female rats", "value": 6.30, "unit": "% Dose"}, {"measurement": "Amount in pooled feces extracts", "setting": "24-48 hours, male rats", "value": 2.15, "unit": "% Dose"}, {"measurement": "Amount in pooled feces extracts", "setting": "Total (0-48 hours), female rats", "value": 26.17, "unit": "% Dose"}]}]}
